# In patent US8980944B2 (Gemmus Pharma Inc., priority 2006, dated 2015):
# Values joined by “and” are separate entries in the source; they are usually repeats but may differ in a detail not shown here. Identical values can stand only once.
# Legend:
# TNFα [1] = test: Poly(I:C)-stimulated human monocyte-derived dendritic cells, TNFα release (ELISA); format: cell-based; settings: one micromolar; for TNFα percent inhibition from untreated control: Poly IC-stimulated monocyte-derived dendritic cells, 18 hours
# clinical = settings: human, in vivo, po
# TNFα [2] = test: ConA-stimulated human peripheral blood lymphocytes, TNFα release (ELISA); settings: human T cells, ConA stimulation
# IFN-γ [3] = test: ConA-stimulated human peripheral blood lymphocytes, IFN-γ release (ELISA); settings: for Percent inhibition of IFN-γ compared to uninhibited control: human T cells, ConA stimulation
# IL-12 = test: LPS-stimulated human monocyte-derived dendritic cells, IL-12 release (ELISA); settings: LPS stimulation
# [4] = Study A: tolerance and pharmacokinetics in volunteers after single oral dose; settings: human, in vivo
# IL-2 = test: Anti-CD3/CD28-stimulated human CD8 cells, IL-2 release (multi-cytokine bead immunoassay)
# IFN-γ [5] = test: Anti-CD3/CD28-stimulated human CD8 cells, IFN-γ release (multi-cytokine bead immunoassay)
# GM-CSF = test: Anti-CD3/CD28-stimulated human CD8 cells, GM-CSF release (multi-cytokine bead immunoassay); settings: 1 μM Nileprost, Anti-CD3/CD28 stimulation, individual donors 1-4
structure (smiles),measurement,setting,value
CCCCC(C)[C@H](O)/C=C/[C@@H]1[C@H]2C/C(=C(\C#N)CCCC(=O)O)O[C@H]2C[C@H]1O (stereo partly drawn) [Nileprost],TNFα percent inhibition from untreated control,TNFα [1]; Donor 1,89%
same,TNFα percent inhibition from untreated control,TNFα [1]; Donor 2,45%
same,TNFα percent inhibition from untreated control,TNFα [1]; Donor 3,74%
same,Poly(I:C)-induced TNFα,TNFα [1]; monocyte-derived dendritic cells,significant decrease
same,Cmax,clinical; 50 ug,0.566 ng/mL and 1.4 nM
same,Cmax,clinical; 75 ug,0.869 ng/mL and 2.2 nM
same,Cmax,clinical; 112 ug,0.803 ng/mL and 2 nM
same,Cmax,clinical; 170 ug,0.954 ng/mL and 2.4 nM
same,Cmax,clinical; 255 ug,1.71 ng/mL and 4.3 nM
same,Cmax,clinical; 375 ug,1.72 ng/mL and 4.3 nM
same,inhibition at 0.001 µM,"TNFα [2]; Homo sapiens, T-cell, read-out: Percent inhibition of TNF compared to uninhibited control, Nileprost 1 nM, individual donors 3-4",24%
same,inhibition at 0.0025 µM,"TNFα [2]; Homo sapiens, T-cell, read-out: Percent inhibition of TNF compared to uninhibited control, Nileprost 2.5 nM, individual donors 1-2",24%
same,inhibition at 0.003 µM,"TNFα [2]; Homo sapiens, T-cell, read-out: Percent inhibition of TNF compared to uninhibited control, Nileprost 3 nM, individual donors 3-4",28%
same,inhibition at 0.005 µM,"TNFα [2]; Homo sapiens, T-cell, read-out: Percent inhibition of TNF compared to uninhibited control, Nileprost 5 nM, individual donors 1-2",47%
same,inhibition at 0.009 µM,"TNFα [2]; Homo sapiens, T-cell, read-out: Percent inhibition of TNF compared to uninhibited control, Nileprost 9 nM, individual donors 3-4",53%
same,inhibition at 0.01 µM,"TNFα [2]; Homo sapiens, T-cell, read-out: Percent inhibition of TNF compared to uninhibited control, Nileprost 10 nM, individual donors 1-2",46%
same,inhibition at 0.02 µM,"TNFα [2]; Homo sapiens, T-cell, read-out: Percent inhibition of TNF compared to uninhibited control, Nileprost 20 nM, individual donors 1-2",50%
same,inhibition at 0.083 µM,"TNFα [2]; Homo sapiens, T-cell, read-out: Percent inhibition of TNF compared to uninhibited control, Nileprost 83 nM, individual donors 3-4",61%
same,Percent inhibition of TNF compared to uninhibited control,"TNFα [2]; Nileprost 0.04 nM, individual donors 3-4",1% and 11%
same,Percent inhibition of TNF compared to uninhibited control,"TNFα [2]; Nileprost 0.11 nM, individual donors 3-4",4% and 16%
same,Percent inhibition of TNF compared to uninhibited control,"TNFα [2]; Nileprost 0.5 nM, individual donors 1-2",7% and 1%
same,Percent inhibition of TNF compared to uninhibited control,"TNFα [2]; Nileprost 1 nM, individual donors 3-4",37%
same,Percent inhibition of TNF compared to uninhibited control,"TNFα [2]; Nileprost 1.25 nM, individual donors 1-2",14% and 5%
same,Percent inhibition of TNF compared to uninhibited control,"TNFα [2]; Nileprost 2.5 nM, individual donors 1-2",19%
same,Percent inhibition of TNF compared to uninhibited control,"TNFα [2]; Nileprost 3 nM, individual donors 3-4",48%
same,Percent inhibition of TNF compared to uninhibited control,"TNFα [2]; Nileprost 5 nM, individual donors 1-2",36%
same,Percent inhibition of TNF compared to uninhibited control,"TNFα [2]; Nileprost 9 nM, individual donors 3-4",67%
same,Percent inhibition of TNF compared to uninhibited control,"TNFα [2]; Nileprost 10 nM, individual donors 1-2",49%
same,Percent inhibition of TNF compared to uninhibited control,"TNFα [2]; Nileprost 83 nM, individual donors 3-4",76%
same,Percent inhibition of TNF compared to uninhibited control,"TNFα [2]; Nileprost 250 nM, individual donors 3-4",49% and 76%
same,Percent inhibition of IFN-γ compared to uninhibited control,"IFN-γ [3]; Nileprost 0.04 nM, individual donors 5-8",16% and 7% and 9% and 27%
same,Percent inhibition of IFN-γ compared to uninhibited control,"IFN-γ [3]; Nileprost 0.11 nM, individual donors 5-8",22% and 16% and 34%
same,Percent inhibition of IFN-γ compared to uninhibited control,"IFN-γ [3]; Nileprost 1 nM, individual donors 5-8",43% and 32% and 24% and 51%
same,Percent inhibition of IFN-γ compared to uninhibited control,"IFN-γ [3]; Nileprost 1.25 nM, individual donors 1-4",11%
same,Percent inhibition of IFN-γ compared to uninhibited control,"IFN-γ [3]; Nileprost 2.5 nM, individual donors 1-4",43%
same,Percent inhibition of IFN-γ compared to uninhibited control,"IFN-γ [3]; Nileprost 3 nM, individual donors 5-8",56% and 46% and 22% and 71%
same,Percent inhibition of IFN-γ compared to uninhibited control,"IFN-γ [3]; Nileprost 5 nM, individual donors 1-4",48% and 56%
same,Percent inhibition of IFN-γ compared to uninhibited control,"IFN-γ [3]; Nileprost 9 nM, individual donors 5-8",59% and 60% and 48% and 73%
same,Percent inhibition of IFN-γ compared to uninhibited control,"IFN-γ [3]; Nileprost 10 nM, individual donors 1-4",43%
same,Percent inhibition of IFN-γ compared to uninhibited control,"IFN-γ [3]; Nileprost 20 nM, individual donors 1-4",56% and 67%
same,Percent inhibition of IFN-γ compared to uninhibited control,"IFN-γ [3]; Nileprost 83 nM, individual donors 5-8",57% and 60% and 65% and 85%
same,Percent inhibition of IFN-γ compared to uninhibited control,"IFN-γ [3]; Nileprost 250 nM, individual donors 5-8",59% and 76% and 57% and 83%
same,inhibitory activity in the T lymphocyte Th-1 cytokine release,"IFN-γ [3]; dose responsively, ConA-stimulated human lymphocytes",very high inhibitory activity
same,inhibitory activity in human monocyte-derived dendritic cell (DC) cytokine release,IL-12,very high inhibitory activity
same,Cmax,[4]; 32 ug,0.84 ng/mL and 2.1 nM
same,Cmax,[4]; 65 ug,0.929 ng/mL and 2.3 nM
same,Percent inhibition of IL-2 compared to uninhibited control,"IL-2; 1 μM Nileprost, Anti-CD3/CD28 stimulation, individual donors 1-4",70%
same,inhibition at 1 µM,"IL-2; Homo sapiens, read-out: Percent inhibition of IL-2 compared to uninhibited control, 1 μM Nileprost, Anti-CD3/CD28 stimulation, individual donors 1-4",71%
same,Percent inhibition of IFN-γ compared to uninhibited control,"IFN-γ [5]; 1 μM Nileprost, human CD8 cells, Anti-CD3/CD28 stimulation, individual donors 1-4",59% and 80%
same,inhibitory activity in the cytotoxic CD8+ lymphocyte cytokine release,"IFN-γ [5]; IFN-γ, GM-CSF and IL-2, anti-CD3/CD28 stimulation",very high inhibitory activity
same,Percent inhibition of GM-CSF compared to uninhibited control,GM-CSF,65% and 61%
